Non-standard residues stand in square brackets, D forms with d. Residues, ends and D or L forms follow the SMILES beside them. pT = C[C@@H](OP(=O)(O)O)[C@H](N)C(=O)O; pS = N[C@@H](COP(=O)(O)O)C(=O)O

For the assay, the target named is T1, 14-3-3ζ (Homo sapiens, UniProt P63104).
T1 construct: Full-length expression and purification of 14-3-3; made in house; host or cells: E. coli BL21 (DE3)STAR
T1 sequence (P63104 1-245): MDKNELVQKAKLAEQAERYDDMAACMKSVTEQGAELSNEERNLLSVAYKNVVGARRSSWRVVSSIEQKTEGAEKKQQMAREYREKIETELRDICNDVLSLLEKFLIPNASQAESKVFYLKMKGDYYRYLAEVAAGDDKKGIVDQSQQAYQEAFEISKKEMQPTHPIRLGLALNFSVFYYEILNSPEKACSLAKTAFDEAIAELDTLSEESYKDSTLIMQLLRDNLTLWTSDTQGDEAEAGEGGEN
In words: FP assay with GR phosphorylated peptides and 14-3-3ζ. It counts as binding. Particulars: read-out: PKd with 14-3-3ζ (converted). As to the method: After 30-min incubation at RT, the plates were read on a plate reader PHERAstar (BMG LABTECH GmbH) for FP signal using […] and standard excitation (485 nm) and emission (520 nm). Measurements were performed as triplicates. Binding data were fit to a standard Hill equation using the software Genedata Screener. The figures were made using the software GraphPad Prism 8. FP data were expressed as millipolarization (mP) units, and the dynamic range (ΔmP) was the difference of the signals from the bound peptide and free peptide. Errors are the standard error of the fit.
For the molecule `CC[C@H](C)[C@H](NC(=O)[C@@H](NC(=O)[C@@H](N)CCCCN)[C@@H](C)O)C(=O)N[C@H](C(=O)N[C@@H](C)C(=O)N[C@@H](C)C(=O)N[C@H](C(=O)N[C@@H](CC(C)C)C(=O)N1CCC[C@H]1C(=O)N[C@@H](CCC(N)=O)C(=O)N[C@@H](CC(C)C)C(=O)N[C@H](C(=O)N1CCC[C@H]1C(=O)NCC(=O)NCC(=O)NCC(=O)NCC(=O)NCC(=O)N[C@@H](CCCNC(=N)N)C(=O)N[C@@H](CO)C(=O)N[C@@H](Cc1ccc(O)cc1)C(=O)N[C@@H](CCCNC(=N)N)C(=O)N[C@@H](CCC(N)=O)C(=O)N[C@@H](CO)C(=O)N[C@@H](COP(=O)(O)O)C(=O)N[C@@H](C)C(=O)N[C@@H](CC(N)=O)C(=O)N[C@@H](CC(C)C)C(=O)N[C@@H](CC(C)C)C(=O)N[C@@H](CS)C(=O)N[C@@H](Cc1ccccc1)C(=O)O)[C@@H](C)O)[C@@H](C)OP(=O)(O)O)C(C)C` [GR_P522A] (H-KTIVAA[pT]LPQLTPGGGGGRSYRQS[pS]ANLLCF-OH), the Kd is 63.1 nM.
The figure for `CC[C@H](C)[C@H](NC(=O)[C@@H](NC(=O)[C@@H](N)CCCCN)[C@@H](C)O)C(=O)N[C@H](C(=O)N1CCC[C@H]1C(=O)N[C@@H](C)C(=O)N[C@H](C(=O)N[C@@H](CC(C)C)C(=O)N[C@@H](C)C(=O)N[C@@H](CCC(N)=O)C(=O)N[C@@H](CC(C)C)C(=O)N[C@H](C(=O)N1CCC[C@H]1C(=O)NCC(=O)NCC(=O)NCC(=O)NCC(=O)NCC(=O)N[C@@H](CCCNC(=N)N)C(=O)N[C@@H](CO)C(=O)N[C@@H](Cc1ccc(O)cc1)C(=O)N[C@@H](CCCNC(=N)N)C(=O)N[C@@H](CCC(N)=O)C(=O)N[C@@H](CO)C(=O)N[C@@H](COP(=O)(O)O)C(=O)N[C@@H](C)C(=O)N[C@@H](CC(N)=O)C(=O)N[C@@H](CC(C)C)C(=O)N[C@@H](CC(C)C)C(=O)N[C@@H](CS)C(=O)N[C@@H](Cc1ccccc1)C(=O)O)[C@@H](C)O)[C@@H](C)OP(=O)(O)O)C(C)C` [GR_P526A] (H-KTIVPA[pT]LAQLTPGGGGGRSYRQS[pS]ANLLCF-OH) is 1260 nM.
The same measure for `CC[C@H](C)[C@H](NC(=O)[C@@H](NC(=O)[C@@H](N)CCCCN)[C@@H](C)O)C(=O)N[C@H](C(=O)N1CCC[C@H]1C(=O)N[C@@H](C)C(=O)N[C@H](C(=O)N[C@@H](CC(C)C)C(=O)N1CCC[C@H]1C(=O)N[C@@H](CCC(N)=O)C(=O)N[C@@H](CC(C)C)C(=O)N[C@H](C(=O)N[C@@H](C)C(=O)NCC(=O)NCC(=O)NCC(=O)NCC(=O)NCC(=O)N[C@@H](CCCNC(=N)N)C(=O)N[C@@H](CO)C(=O)N[C@@H](Cc1ccc(O)cc1)C(=O)N[C@@H](CCCNC(=N)N)C(=O)N[C@@H](CCC(N)=O)C(=O)N[C@@H](CO)C(=O)N[C@@H](COP(=O)(O)O)C(=O)N[C@@H](C)C(=O)N[C@@H](CC(N)=O)C(=O)N[C@@H](CC(C)C)C(=O)N[C@@H](CC(C)C)C(=O)N[C@@H](CS)C(=O)N[C@@H](Cc1ccccc1)C(=O)O)[C@@H](C)O)[C@@H](C)OP(=O)(O)O)C(C)C` [GR_P530A] (H-KTIVPA[pT]LPQLTAGGGGGRSYRQS[pS]ANLLCF-OH): 31.6 nM; for `CC[C@H](C)[C@H](NC(=O)[C@@H](NC(=O)[C@@H](N)CCCCN)[C@@H](C)O)C(=O)N[C@H](C(=O)N1CCC[C@H]1C(=O)N[C@@H](C)C(=O)N[C@H](C(=O)N[C@@H](CC(C)C)C(=O)N1CCC[C@H]1C(=O)N[C@@H](C)C(=O)N[C@@H](CC(C)C)C(=O)N[C@H](C(=O)N1CCC[C@H]1C(=O)NCC(=O)NCC(=O)NCC(=O)NCC(=O)NCC(=O)N[C@@H](CCCNC(=N)N)C(=O)N[C@@H](CO)C(=O)N[C@@H](Cc1ccc(O)cc1)C(=O)N[C@@H](CCCNC(=N)N)C(=O)N[C@@H](CCC(N)=O)C(=O)N[C@@H](CO)C(=O)N[C@@H](COP(=O)(O)O)C(=O)N[C@@H](C)C(=O)N[C@@H](CC(N)=O)C(=O)N[C@@H](CC(C)C)C(=O)N[C@@H](CC(C)C)C(=O)N[C@@H](CS)C(=O)N[C@@H](Cc1ccccc1)C(=O)O)[C@@H](C)O)[C@@H](C)OP(=O)(O)O)C(C)C` [GR_Q527A] (H-KTIVPA[pT]LPALTPGGGGGRSYRQS[pS]ANLLCF-OH): 31.6 nM.

The values above are taken from paper PMC8080530, “Glucocorticoid receptor Thr524 phosphorylation by MINK1 induces interactions with 14-3-3 protein regulators” (The Journal of Biological Chemistry, 2021).
